Experiments:
[1] = test system: HI650 (Lung Adenocarcinoma); experiment: Cell viability analysis, lung cancer HI650; format: cell-based, human
[2] = test system: A549 (Lung Adenocarcinoma); experiment: Cell viability analysis, lung cancer A549; format: cell-based, human
[3] = test system: AGS (Gastric Adenocarcinoma); experiment: Cell viability analysis, gastric cancer AGS; format: cell-based, human
[4] = test system: MKN-45 (Gastric Adenocarcinoma); experiment: Cell viability analysis, gastric cancer MKN-45; format: cell-based, human
[5] = test system: HepG2 (Hepatocellular Carcinoma); experiment: Cell viability analysis, hepatic cancer HepG2; format: cell-based, human
[6] = test system: Hep3B (hepatocellular carcinoma); experiment: Cell viability analysis, hepatic cancer Hep3B; format: cell-based, human
[7] = test system: LoVo (Colorectal Adenocarcinoma); experiment: Cell viability analysis, colon cancer LoVo; format: cell-based, human
[8] = test system: A375 (Amelanotic Melanoma); experiment: Cell viability analysis, skin cancer A375; format: cell-based, human
[9] = test system: BCC (basal cell carcinoma); experiment: Cell viability analysis, skin cancer BCC; format: cell-based, human
[10] = test system: HeLa (Cervix Adenocarcinoma); experiment: Cell viability analysis, cervical cancer HeLa; format: cell-based, human
[11] = test system: C-33A (Cervical carcinoma); experiment: Cell viability analysis, cervical cancer C-33A; format: cell-based, human
[12] = test system: PC3 (p53−) (Prostate Adenocarcinoma); experiment: Cell viability analysis, prostate cancer PC3; format: cell-based, human
[13] = test system: TSGH-8301 (Urinary Bladder Carcinoma); experiment: Cell viability analysis, bladder cancer TSGH-8301; format: cell-based, human
[14] = test system: T24; experiment: Cell viability analysis, bladder cancer T24; format: cell-based, human
[15] = test system: MCF7 (Mammary Gland, Adenocarcinoma); experiment: Cell viability analysis, breast cancer MCF7; format: cell-based, human
[16] = test system: MDA-MB-231 (Mammary Gland, Adenocarcinoma); experiment: Cell viability analysis, breast cancer MDA-MB-231; format: cell-based, human
[17] = test system: BxPC-3; experiment: Cell viability analysis, pancreatic cancer BxPC-3; format: cell-based, human
[18] = test system: AsPC-1; experiment: Cell viability analysis, pancreatic cancer AsPC-1; format: cell-based, human
[19] = test system: NIH: OVCAR-3; experiment: Cell viability analysis, ovarian cancer NIH: OVCAR-3; format: cell-based, human
[20] = test system: TOV-21G; experiment: Cell viability analysis, ovarian cancer TOV-21G; format: cell-based, human
[21] = test system: SAS (Tongue squamous cell carcinoma); experiment: Cell viability analysis, tongue cancer SAS; format: cell-based, human
[22] = test system: U-2OS; experiment: Cell viability analysis, osteosarcoma U-2OS; format: cell-based, human
[23] = test system: 786-O (Renal adenocarcinoma); experiment: Cell viability analysis, renal cancer 786-O; format: cell-based, human
[24] = test system: HCT116 (p53+) (Colorectal Carcinoma)

Structure (SMILES): Cl.c1ccc([C@H]2CN3CCSC3=N2)cc1 [Levamisole Hydrochloride (Ergamisol)]
- The results of antibiotic drug inhibiting cancer cell lines (cell viability analysis), H1650 [1]: 78.34
- The results of antibiotic drug inhibiting cancer cell lines (cell viability analysis), A549 [2]: 104.9
- The results of antibiotic drug inhibiting cancer cell lines (cell viability analysis), AGS [3]: 120.5
- The results of antibiotic drug inhibiting cancer cell lines (cell viability analysis), MKN-45 [4]: 112.3
- The results of antibiotic drug inhibiting cancer cell lines (cell viability analysis), HepG2 [5]: 127.7
- The results of antibiotic drug inhibiting cancer cell lines (cell viability analysis), Hep3B [6]: 121.1
- The results of antibiotic drug inhibiting cancer cell lines (cell viability analysis), LoVo [7]: 100.7
- The results of antibiotic drug inhibiting cancer cell lines (cell viability analysis), A375 [8]: 113.9
- The results of antibiotic drug inhibiting cancer cell lines (cell viability analysis), BCC [9]: 114.1
- The results of antibiotic drug inhibiting cancer cell lines (cell viability analysis), HeLa [10]: 137
- The results of antibiotic drug inhibiting cancer cell lines (cell viability analysis), C-33A [11]: 96.19
- The results of antibiotic drug inhibiting cancer cell lines (cell viability analysis), PC-3 [12]: 125.7
- The results of antibiotic drug inhibiting cancer cell lines (cell viability analysis), TSGH-8301 [13]: 106.8
- The results of antibiotic drug inhibiting cancer cell lines (cell viability analysis), T24 [14]: 92.87
- The results of antibiotic drug inhibiting cancer cell lines (cell viability analysis), MCF-7 [15]: 102.4
- The results of antibiotic drug inhibiting cancer cell lines (cell viability analysis), MDA-MB231 [16]: 102.7
- The results of antibiotic drug inhibiting cancer cell lines (cell viability analysis), BxPC-3 [17]: 68.02
- The results of antibiotic drug inhibiting cancer cell lines (cell viability analysis), AsPC-1 [18]: 85.72
- The results of antibiotic drug inhibiting cancer cell lines (cell viability analysis), NIH-OVCAR-3 [19]: 105.6
- The results of antibiotic drug inhibiting cancer cell lines (cell viability analysis), TOV-21G [20]: 83.45
- The results of antibiotic drug inhibiting cancer cell lines (cell viability analysis), SAS [21]: 89.56
- The results of antibiotic drug inhibiting cancer cell lines (cell viability analysis), U2OS [22]: 79.87
- The results of antibiotic drug inhibiting cancer cell lines (cell viability analysis), 786-O [23]: 93.24
- viability [24]: 116%

Structure (SMILES): CCCOc1ccc2nc(NC(=O)OC)[nH]c2c1 [Oxibendazole]
- viability at 10 µM ([1]; Homo sapiens, NCI-H1650, 72 h, read-out: The results of antibiotic drug inhibiting cancer cell lines (cell viability analysis), H1650, H1650, repeated experiment): 41.3%
- viability at 10 µM ([2]; Homo sapiens, A549, 72 h, read-out: The results of antibiotic drug inhibiting cancer cell lines (cell viability analysis), A549, A549, repeated experiment): 24%
- viability at 10 µM ([3]; Homo sapiens, 72 h, read-out: The results of antibiotic drug inhibiting cancer cell lines (cell viability analysis), AGS, repeated experiment): 37.6%
- viability at 10 µM ([4]; Homo sapiens, MKN-45, 72 h, read-out: The results of antibiotic drug inhibiting cancer cell lines (cell viability analysis), MKN-45, MKN-45, repeated experiment): 65.6%
- viability at 10 µM ([5]; Homo sapiens, HepG2, 72 h, read-out: The results of antibiotic drug inhibiting cancer cell lines (cell viability analysis), HepG2, HepG2, repeated experiment): 64.5%
- viability at 10 µM ([6]; Homo sapiens, Hep3B, 72 h, read-out: The results of antibiotic drug inhibiting cancer cell lines (cell viability analysis), Hep3B): 59.8%
- viability at 10 µM ([7]; Homo sapiens, LoVo, 72 h, read-out: The results of antibiotic drug inhibiting cancer cell lines (cell viability analysis), LoVo, repeated experiment): 53.4%
- viability at 10 µM ([8]; Homo sapiens, A-375, 72 h, read-out: The results of antibiotic drug inhibiting cancer cell lines (cell viability analysis), A375, A375, repeated experiment): 31.8%
- viability at 10 µM ([9]; Homo sapiens, 72 h, read-out: The results of antibiotic drug inhibiting cancer cell lines (cell viability analysis), BCC): 34.3%
- viability at 10 µM ([10]; Homo sapiens, HeLa, 72 h, read-out: The results of antibiotic drug inhibiting cancer cell lines (cell viability analysis), HeLa, repeated experiment): 29.3%
- viability at 10 µM ([11]; Homo sapiens, C-33-A, 72 h, read-out: The results of antibiotic drug inhibiting cancer cell lines (cell viability analysis), C-33A): 47.8%
- viability at 10 µM ([12]; Homo sapiens, 72 h, read-out: The results of antibiotic drug inhibiting cancer cell lines (cell viability analysis), PC-3, PC-3, repeated experiment): 38.9%
- viability at 10 µM ([13]; Homo sapiens, 72 h, read-out: The results of antibiotic drug inhibiting cancer cell lines (cell viability analysis), TSGH-8301, TSGH-8301, repeated experiment): 48.6%
- viability at 10 µM ([14]; Homo sapiens, T-24, 72 h, read-out: The results of antibiotic drug inhibiting cancer cell lines (cell viability analysis), T24): 38.1%
- viability at 10 µM ([15]; Homo sapiens, MCF7, 72 h, read-out: The results of antibiotic drug inhibiting cancer cell lines (cell viability analysis), MCF-7, MCF-7, repeated experiment): 60.9%
- viability at 10 µM ([16]; Homo sapiens, MDA-MB-231, 72 h, read-out: The results of antibiotic drug inhibiting cancer cell lines (cell viability analysis), MDA-MB231): 48.9%
- viability at 10 µM ([17]; Homo sapiens, BXPC-3, 72 h, read-out: The results of antibiotic drug inhibiting cancer cell lines (cell viability analysis), BxPC-3): 29.1%
- viability at 10 µM ([18]; Homo sapiens, ASPC1, 72 h, read-out: The results of antibiotic drug inhibiting cancer cell lines (cell viability analysis), AsPC-1): 33%
- viability at 10 µM ([19]; Homo sapiens, OVCAR-3, 72 h, read-out: The results of antibiotic drug inhibiting cancer cell lines (cell viability analysis), NIH-OVCAR-3): 54.8%
- viability at 10 µM ([20]; Homo sapiens, TOV21G, 72 h, read-out: The results of antibiotic drug inhibiting cancer cell lines (cell viability analysis), TOV-21G): 26.6%
- viability at 10 µM ([21]; Homo sapiens, 72 h, read-out: The results of antibiotic drug inhibiting cancer cell lines (cell viability analysis), SAS): 41.2%
- viability at 10 µM ([22]; Homo sapiens, U2OS, 72 h, read-out: The results of antibiotic drug inhibiting cancer cell lines (cell viability analysis), U2OS): 46.6%
- viability at 10 µM ([23]; Homo sapiens, 786-0, 72 h, read-out: The results of antibiotic drug inhibiting cancer cell lines (cell viability analysis), 786-O): 18.5%
- viability [24]: 22.1%

Structure (SMILES): CS(=O)(=O)c1ccc([C@@H](O)[C@@H](CO)NC(=O)C(Cl)Cl)cc1 [Thiamphenicol (Thiophenicol)]
- The results of antibiotic drug inhibiting cancer cell lines (cell viability analysis), H1650 [1]: 94.92
- The results of antibiotic drug inhibiting cancer cell lines (cell viability analysis), A549 [2]: 97.41
- The results of antibiotic drug inhibiting cancer cell lines (cell viability analysis), AGS [3]: 140.3
- The results of antibiotic drug inhibiting cancer cell lines (cell viability analysis), MKN-45 [4]: 177
- The results of antibiotic drug inhibiting cancer cell lines (cell viability analysis), HepG2 [5]: 143.9
- The results of antibiotic drug inhibiting cancer cell lines (cell viability analysis), Hep3B [6]: 103.3
- The results of antibiotic drug inhibiting cancer cell lines (cell viability analysis), LoVo [7]: 96.08
- The results of antibiotic drug inhibiting cancer cell lines (cell viability analysis), A375 [8]: 112
- The results of antibiotic drug inhibiting cancer cell lines (cell viability analysis), BCC [9]: 111.8
- The results of antibiotic drug inhibiting cancer cell lines (cell viability analysis), HeLa [10]: 90.82
- The results of antibiotic drug inhibiting cancer cell lines (cell viability analysis), C-33A [11]: 140.2
- The results of antibiotic drug inhibiting cancer cell lines (cell viability analysis), PC-3 [12]: 150.2
- The results of antibiotic drug inhibiting cancer cell lines (cell viability analysis), TSGH-8301 [13]: 136.8
- The results of antibiotic drug inhibiting cancer cell lines (cell viability analysis), T24 [14]: 164
- The results of antibiotic drug inhibiting cancer cell lines (cell viability analysis), MCF-7 [15]: 89.24
- The results of antibiotic drug inhibiting cancer cell lines (cell viability analysis), MDA-MB231 [16]: 95.4
- The results of antibiotic drug inhibiting cancer cell lines (cell viability analysis), BxPC-3 [17]: 86.08
- The results of antibiotic drug inhibiting cancer cell lines (cell viability analysis), AsPC-1 [18]: 102.5
- The results of antibiotic drug inhibiting cancer cell lines (cell viability analysis), NIH-OVCAR-3 [19]: 115.7
- The results of antibiotic drug inhibiting cancer cell lines (cell viability analysis), TOV-21G [20]: 105.7
- The results of antibiotic drug inhibiting cancer cell lines (cell viability analysis), SAS [21]: 54.04
- The results of antibiotic drug inhibiting cancer cell lines (cell viability analysis), U2OS [22]: 51.12
- The results of antibiotic drug inhibiting cancer cell lines (cell viability analysis), 786-O [23]: 93.48
- viability [24]: 150%
